pEC50, pKi: −log10 of the molar value. Calls of active or inactive are those of the source. The calls are words filed in the database; no cut-off is given here.
How the values were obtained:
[1] = target: Delta-type opioid receptor (Mus musculus) (UniProt P32300); assay: Displacement of [3H]diprenorphine from mouse FLAG-tagged delta opioid receptor expressed in CHO cells at 3 uM; format: cell-based
[2] = target: Mu-type opioid receptor (Rattus norvegicus) (UniProt P33535); assay: Displacement of [3H]diprenorphine from rat mu opioid receptor expressed in CHO cells at 3 uM; format: cell-based
[3] = target: T1, Kappa-type opioid receptor (Homo sapiens, UniProt P41145); assay: Displacement of [3H]diprenorphine from human kappa opioid receptor expressed in CHO cells at 3 uM; format: cell-based
[4] = target: T1, Kappa-type opioid receptor; assay: Agonist activity at human kappa opioid receptor expressed in CHO cells assessed as increase of [35S]GTPgammaS binding at 240 nM relative to U50488H; format: functional, cell-based
[5] = target: T1, Kappa-type opioid receptor; assay: Displacement of [3H]diprenorphine from human kappa opioid receptor expressed in CHO cells; format: cell-based
[6] = target: T1, Kappa-type opioid receptor; assay: Agonist activity at human kappa opioid receptor expressed in CHO cells assessed as increase of [35S]GTPgammaS binding; format: functional, cell-based

Sequence of Mu-type opioid receptor (Rattus norvegicus) (P33535 whole entry): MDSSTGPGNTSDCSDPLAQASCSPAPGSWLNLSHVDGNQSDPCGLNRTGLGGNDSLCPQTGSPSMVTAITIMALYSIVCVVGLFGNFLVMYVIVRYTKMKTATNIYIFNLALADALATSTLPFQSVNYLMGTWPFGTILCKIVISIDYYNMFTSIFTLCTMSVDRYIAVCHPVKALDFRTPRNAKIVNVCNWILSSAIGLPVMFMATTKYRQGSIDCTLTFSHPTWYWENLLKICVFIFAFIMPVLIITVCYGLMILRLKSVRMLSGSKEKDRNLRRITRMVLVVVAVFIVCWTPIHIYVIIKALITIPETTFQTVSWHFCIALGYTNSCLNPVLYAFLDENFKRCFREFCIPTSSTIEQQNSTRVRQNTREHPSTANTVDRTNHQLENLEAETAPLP
Sequence of Delta-type opioid receptor (Mus musculus) (P32300 whole entry): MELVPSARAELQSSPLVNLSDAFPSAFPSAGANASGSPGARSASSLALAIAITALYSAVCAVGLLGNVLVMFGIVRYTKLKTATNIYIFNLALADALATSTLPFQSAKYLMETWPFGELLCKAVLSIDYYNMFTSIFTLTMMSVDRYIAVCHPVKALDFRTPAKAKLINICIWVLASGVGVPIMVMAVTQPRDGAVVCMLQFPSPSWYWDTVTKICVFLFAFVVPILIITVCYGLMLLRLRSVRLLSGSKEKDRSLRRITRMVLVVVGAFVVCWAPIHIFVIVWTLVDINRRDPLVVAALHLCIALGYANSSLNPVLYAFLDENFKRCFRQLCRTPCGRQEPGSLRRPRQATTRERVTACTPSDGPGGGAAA
T1 sequence (P41145 whole entry): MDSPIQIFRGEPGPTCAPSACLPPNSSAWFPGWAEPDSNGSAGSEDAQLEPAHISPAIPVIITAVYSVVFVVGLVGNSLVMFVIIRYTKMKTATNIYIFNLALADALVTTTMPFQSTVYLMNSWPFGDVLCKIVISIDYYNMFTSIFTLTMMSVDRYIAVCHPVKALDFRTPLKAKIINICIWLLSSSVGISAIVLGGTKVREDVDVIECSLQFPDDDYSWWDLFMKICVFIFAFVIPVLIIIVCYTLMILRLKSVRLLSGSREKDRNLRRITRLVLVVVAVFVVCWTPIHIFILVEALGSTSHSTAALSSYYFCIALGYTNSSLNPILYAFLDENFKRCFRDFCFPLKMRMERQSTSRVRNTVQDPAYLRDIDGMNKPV

SMILES | Activity [1] | Activity [2] | inhibition [3] [%] | Emax [4] [%] | pKi [5] | pEC50 [6]
COC(=O)[C@@H]1C[C@H](OC(C)=O)C(=O)[C@H]2[C@@]1(C)CC[C@H]1C(=O)O[C@H](c3ccoc3)C[C@]21C | inactive | inactive | > 50 | – | – | –
COC(=O)[C@@H]1CCC(=O)[C@H]2[C@@]1(C)CC[C@H]1C(=O)O[C@H](c3ccoc3)C[C@]21C | inactive | inactive | > 50 | 124 | 7.29 | 6.58
COC(=O)[C@@H]1CC(C(=O)O)C(=O)[C@H]2[C@@]1(C)CC[C@H]1C(=O)O[C@H](c3ccoc3)C[C@]21C (stereo partly drawn) | inactive | inactive | > 50 | 103 | 7.61 | 7.08
COC(=O)[C@@H]1C[C@H](F)C(=O)[C@H]2[C@@]1(C)CC[C@H]1C(=O)O[C@H](c3ccoc3)C[C@]21C | inactive | inactive | > 50 | – | < 6.00 | –
COC(=O)[C@@H]1C[C@H](Br)C(=O)[C@H]2[C@@]1(C)CC[C@H]1C(=O)O[C@H](c3ccoc3)C[C@]21C | inactive | inactive | > 50 | 87 | 6.37 | 5.71
COC(=O)[C@@H]1C[C@@H](Cl)C(=O)[C@H]2[C@@]1(C)CC[C@H]1C(=O)O[C@H](c3ccoc3)C[C@]21C | inactive | inactive | > 50 | 112 | 6.78 | 6.17
COC(=O)[C@@H]1C[C@@H](Br)C2=C3[C@@](C)(C[C@H](c4ccoc4)O2)C(C(=O)O)CC[C@]31C (stereo partly drawn) | inactive | inactive | > 50 | – | < 6.00 | –
COC(=O)[C@@H]1C[C@H](Cl)C(=O)[C@H]2[C@@]1(C)CC[C@H]1C(=O)O[C@H](c3ccoc3)C[C@]21C | inactive | inactive | > 50 | – | < 6.00 | –
COC(=O)[C@@H]1C[C@@H](F)C(=O)[C@H]2[C@@]1(C)CC[C@H]1C(=O)O[C@H](c3ccoc3)C[C@]21C | inactive | inactive | > 50 | 77 | 6.71 | 6.27
COC(=O)[C@@H]1C[C@H](I)C(=O)[C@H]2[C@@]1(C)CC[C@H]1C(=O)O[C@H](c3ccoc3)C[C@]21C | inactive | inactive | > 50 | 92 | 6.70 | 6.19
COC(=O)[C@@H]1C[C@@H](I)C(=O)[C@H]2[C@@]1(C)CC[C@H]1C(=O)O[C@H](c3ccoc3)C[C@]21C | inactive | inactive | > 50 | 46 | 6.61 | 6.62
COC(=O)[C@@H]1C[C@@H](Br)C(=O)[C@H]2[C@@]1(C)CC[C@H]1C(=O)O[C@H](c3ccoc3)C[C@]21C | inactive | inactive | > 50 | 90 | 7.37 | 6.55

— ChEMBL document CHEMBL1255551, “Synthesis and biological evaluation of C-2 halogenated analogs of salvinorin A” (Bioorg Med Chem Lett, 2010)
